Laboratory results published in US10125134B2 (Mirati Therapeutics, Inc., priority 2016, dated 2018).
Where two headings read alike, the source gives them in different places.

Assays:
[1] = molecular target: KRas G12C (Homo sapiens, UniProt P01116, C118S/C51S/C80L/G12C); assay: KRas G12C Modification Assay (LCMS detection of covalent adduct); assay type: binding; details: normalized percent of control; tested at 5 μM concentration for 3 hours
Outline: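 Cys-light KRas G12C mutant protein incubated with compound in K-Ras assay buffer, reactions quenched at set time points with 25 mM acetic acid and analysed by intact-protein LC/MS on a C-3 column. Deconvoluted mass heights expressed as percent of control (POC) relative to compound-free protein.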

[2] = test system: NCI-H358 cells (express KRas G12C), Phospho-ERK; assay: Cellular inhibition of KRas G12C: Phospho-ERK in NCI-H358 cells; assay type: cell-based; details: Homo sapiens, pERK(Thr202/Tyr204) normalized with GAPDH, NCI-H358 cells, 3 hours, read-out: IC50
Outline: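 IC50 derived by 4-parameter fit of GAPDH-normalized pERK(Thr202/Tyr204) signal, as percent of DMSO control. Signal came from in-cell immunodetection with infrared secondaries after 3 h compound exposure of KRas G12C NCI-H358 cells at 0.5% DMSO.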

SMILES | POC [1] | IC50 ([2]; NCI-H358, 3 h) | IC50 [2]
C=CC(=O)N1CCN(c2nc(OC[C@@H]3CCCN3C)nc3c2CCN(c2ccccc2Cl)C3)CC1CC#N (stereo partly drawn) [Example 229, 2-(1-acryloyl-4-(7-(2-chlorophenyl)-2-(((S)-1-methylpyrrolidin-2-yl)methoxy)-5,6,7,8-tetrahydropyrido[3,4-d]pyrimidin-4-yl)piperazin-2-yl)acetonitrile] | C (“C”>50% POC) | 0.0001 to 1 µM | 
C=CC(=O)N1CCN(c2nc(OC[C@@H]3CCCN3C)nc3c2CCN(c2cccc(F)c2C(F)(F)F)C3)CC1CC#N (stereo partly drawn) [Example 230, 2-(1-acryloyl-4-(7-(3-fluoro-2-(trifluoromethyl)phenyl)-2-(((S)-1-methylpyrrolidin-2-yl)methoxy)-5,6,7,8-tetrahydropyrido[3,4-d]pyrimidin-4-yl)piperazin-2-yl)acetonitrile] | C (“C”>50% POC) | 0.0001 to 1 µM | 
C=CC(=O)N1CCN(c2nc(OCCCO)nc3c2CCN(c2cccc4ccccc24)C3)CC1CC#N (centres unmarked) [Example 231, 2-(1-acryloyl-4-(2-(3-hydroxypropoxy)-7-(naphthalen-1-yl)-5,6,7,8-tetrahydropyrido[3,4-d]pyrimidin-4-yl)piperazin-2-yl)acetonitrile] | C (“C”>50% POC) |  | 0.0001 to 1 µM
C=CC(=O)N1CCN(c2nc(OCCCN3CCOCC3)nc3c2CCN(c2cc(O)cc(Cl)c2F)C3)CC1 [Example 232, 1-(4-(7-(3-chloro-2-fluoro-5-hydroxyphenyl)-2-(3-morpholinopropoxy)-5,6,7,8-tetrahydropyrido[3,4-d]pyrimidin-4-yl)piperazin-1-yl)prop-2-en-1-one] | C (“C”>50% POC) |  | > 1 µM
C=CC(=O)N1CCN(c2nc(OC[C@@H]3CCCN3CC)nc3c2CCN(c2cccc4ccccc24)C3)CC1CC#N (stereo partly drawn) [Example 233, 2-(1-acryloyl-4-(2-(((S)-1-ethylpyrrolidin-2-yl)methoxy)-7-(naphthalen-1-yl)-5,6,7,8-tetrahydropyrido[3,4-d]pyrimidin-4-yl)piperazin-2-yl)acetonitrile] | C (“C”>50% POC) | 0.0001 to 1 µM | 
C=CC(=O)N1CCN(c2nc(OC[C@@H]3CCCN3C)nc3c2CCN(c2cccc4ccccc24)C3)C[C@@H]1CC#N [Example 234, 2-((S)-1-acryloyl-4-(2-(((S)-1-methylpyrrolidin-2-yl)methoxy)-7-(naphthalen-1-yl)-5,6,7,8-tetrahydropyrido[3,4-d]pyrimidin-4-yl)piperazin-2-yl)acetonitrile] | C (“C”>50% POC) |  | 0.0001 to 1 µM
CN(C)C/C=C/C(=O)N1CCN(c2nc(OC[C@@H]3CCCN3C)nc3c2CCN(c2cccc4ccccc24)C3)C[C@@H]1CC#N [Example 235, 2-((S)-1-((E)-4-(dimethylamino)but-2-enoyl)-4-(2-(((S)-1-methylpyrrolidin-2-yl)methoxy)-7-(naphthalen-1-yl)-5,6,7,8-tetrahydropyrido[3,4-d]pyrimidin-4-yl)piperazin-2-yl)acetonitrile] | C (“C”>50% POC) | 0.0001 to 1 µM | 
CN1CCC[C@H]1COc1nc2c(c(N3CCN(C(=O)/C=C/CN4CCCCC4)[C@@H](CC#N)C3)n1)CCN(c1cccc3ccccc13)C2 [Example 236, 2-((S)-4-(2-(((S)-1-methylpyrrolidin-2-yl)methoxy)-7-(naphthalen-1-yl)-5,6,7,8-tetrahydropyrido[3,4-d]pyrimidin-4-yl)-1-(E-4-(piperidin-1-yl)but-2-enoyl)piperazin-2-yl)acetonitrile] | C (“C”>50% POC) | 0.0001 to 1 µM | 
C=CC(=O)N1CCN(c2nc(OC[C@@H]3CCCN3C)nc3c2CCN(c2ccccc2C(F)(F)F)C3)C[C@@H]1CC#N [Example 237, 2-((S)-1-acryloyl-4-(2-(((S)-1-methylpyrrolidin-2-yl)methoxy)-7-(2-(trifluoromethyl)phenyl)-5,6,7,8-tetrahydropyrido[3,4-d]pyrimidin-4-yl)piperazin-2-yl)acetonitrile 2,2,2-trifluoroacetate] | C (“C”>50% POC) | 0.0001 to 1 µM | 
C=CC(=O)N1CCN(c2nc(OC[C@@H]3CCCN3C)nc3c2CCN(c2c(C)ccc4cn[nH]c24)C3)CC1CC#N (stereo partly drawn) [Example 238, 2-(1-acryloyl-4-(7-(6-methyl-1H-indazol-7-yl)-2-(((S)-1-methylpyrrolidin-2-yl)methoxy)-5,6,7,8-tetrahydropyrido[3,4-d]pyrimidin-4-yl)piperazin-2-yl)acetonitrile] | C (“C”>50% POC) | 0.0001 to 1 µM | 
C=CC(=O)N1CCN(c2nc(OC[C@@H]3CCCN3C)nc3c2CCN(c2ccncc2C(F)(F)F)C3)CC1CC#N (stereo partly drawn) [Example 239, 2-(1-acryloyl-4-(2-(((S)-1-methylpyrrolidin-2-yl)methoxy)-7-(3-(trifluoromethyl)pyridin-4-yl)-5,6,7,8-tetrahydropyrido[3,4-d]pyrimidin-4-yl)piperazin-2-yl)acetonitrile] | C (“C”>50% POC) | > 1 µM | 
C=CC(=O)N1CCN(c2nc(OC[C@@H]3CCCN3C)nc3c2CCN(c2ccccc2CC(F)(F)F)C3)CC1CC#N (stereo partly drawn) [Example 240, 2-(1-acryloyl-4-(2-(((S)-1-methylpyrrolidin-2-yl)methoxy)-7-(2-(2,2,2-trifluoroethyl)phenyl)-5,6,7,8-tetrahydropyrido[3,4-d]pyrimidin-4-yl)piperazin-2-yl)acetonitrile] | C (“C”>50% POC) | > 1 µM | 
CN1CCC[C@H]1COc1nc2c(c(N3CCN(C(=O)OCc4ccccc4)C(CC#N)C3)n1)CCN(c1ncccc1C(F)(F)F)C2 (stereo partly drawn) [Example 241, benzyl 2-(cyanomethyl)-4-(2-(((S)-1-methylpyrrolidin-2-yl)methoxy)-7-(3-(trifluoromethyl)pyridin-2-yl)-5,6,7,8-tetrahydropyrido[3,4-d]pyrimidin-4-yl)piperazine-1-carboxylate] | C (“C”>50% POC) | > 1 µM | 
C=CC(=O)N1CCN(c2nc(OC[C@H]3CCCN3C)nc3c2CCN(c2c(C(F)(F)F)ccc4[nH]ncc24)C3)CC1CC#N (stereo partly drawn) [Example 243, 2-[4-[2-[[(2R)-1-methylpyrrolidin-2-yl]methoxy]-7-[5-(trifluoromethyl)-1H-indazol-4-yl]-6,8-dihydro-5H-pyrido[3,4-d]pyrimidin-4-yl]-1-prop-2-enoyl-piperazin-2-yl]acetonitrile] | C (“C”>50% POC) | 0.0001 to 1 µM | 
C=CC(=O)N1CCN(c2nc(OC[C@@H]3CCCN3C)nc3c2CCN(c2cccc4ccc(C)cc24)C3)CC1CC#N (stereo partly drawn) [Example 245, 2-[4-[7-(7-methyl-1-naphthyl)-2-[[(2S)-1-methylpyrrolidin-2-yl]methoxy]-6,8-dihydro-5H-pyrido[3,4-d]pyrimidin-4-yl]-1-prop-2-enoyl-piperazin-2-yl]acetonitrile] | C (“C”>50% POC) |  | 0.0001 to 1 µM
C=CC(=O)N1CCN(c2nc(OC[C@@H]3CCCN3C)nc3c2CCN(c2ccc(F)c4ccccc24)C3)CC1CC#N (stereo partly drawn) [Example 246, 2-[4-[7-(4-fluoro-1-naphthyl)-2-[[(2S)-1-methylpyrrolidin-2-yl]methoxy]-6,8-dihydro-5H-pyrido[3,4-d]pyrimidin-4-yl]-1-prop-2-enoyl-piperazin-2-yl]acetonitrile] | C (“C”>50% POC) | 0.0001 to 1 µM | 
